Measured values as given in patent US20050181509A1 (priority 2004, published 2005).

Columns and labels:
[1] = test system: Botrytis cineria transformants generated using pBHt2-tk (ChGPD-HSVtk); type: cell-based
[2] = test system: F. oxysporum transformants generated using pBHt2-tk (ChGPD-HSVtk); type: cell-based, Fusarium oxysporum
[3] = test system: Aspergillus fumigatus transformants generated using pBHt2-tk (ChGPD-HSVtk); type: cell-based
[4] = test system: transformants of Cryptococcus neoformans that express HSVtk; details: HSVtk-expressing transformants; cited from earlier work
[5] = test system: wild-type strain of B. cineria; type: cell-based, Botrytis cineria
[6] = test system: transformants of N. crassa that express HSVtk; details: HSVtk-expressing transformants; cited from earlier work
[7] = test system: F. oxysporum O-685 transformants; type: cell-based, Fusarium oxysporum

Structure (SMILES) | concentration failing to inhibit growth [1] [mM] | sensitivity of transformants [2] | sensitivity of transformants [3] | sensitivity of transformants [4] | sensitivity of wild-type strain [5] | concentration sufficient to inhibit growth [1] [nM] | sensitivity of transformants [1] | sensitivity of transformants [6] | concentration required for significant growth inhibition [3] [µM] | reduction of the number of transformants relative to that generated in the presence of 0 or 5 μM F2dU [7] [fold]
Nc1nc(O)c2ncn(COC(CO)CO)c2n1 [Ganciclovir] | > 2 | exhibited sensitivity | exhibited sensitivity |  |  |  |  |  |  | 
O=c1[nH]c(=O)n([C@H]2C[C@H](O)[C@@H](CO)O2)cc1F [F2dU, 5-fluoro-2′-deoxyuridine] |  | exhibited sensitivity | exhibited sensitivity | exhibited sensitivity | exhibited noticeable sensitivity | 5 | exhibited sensitivity | exhibited sensitivity | 50 | 2 to 4
